Measurements as given in publication PMC5859250, “Contribution of transformation products towards the total herbicide toxicity to tropical marine organisms” (Scientific Reports, 2018).

Columns and labels:
[1] = tested on: prawn (Penaeus monodon) larvae; experiment: Prawn larvae assay, metamorphosis of nauplii into protozoea (24 h static); format: in vivo
Description: The giant tiger prawn (Penaeus monodon) can be found throughout the tropical Indo-Pacific region and can be obtained from aquaculture facilities and has a well-described life cycle. The aim of the larval prawn assay was to determine whether the herbicides and transformation products inhibit early naupliar development. Prawn eggs hatch into their first larval stage (nauplii), typically 12–15 h after spawning. During development the nauplii are lecithotrophic, and over the course of the next 36 h, nauplii pass through 6 sub-stages before metamorphosing into protozoae[67],[68].
Freshly hatched nauplii were harvested by light attraction over 30 min, and washed and aerated for 10 min with seawater, and transported to AIMS in Townsville, Queensland. […] The toxicity assays were performed in incubator shakers (set to 30 °C) under very low light and with gentle shaking to prevent individuals adhering to the side of experimental containers.
The larval stock was gently concentrated via reverse-gravity filtration to a higher density before dispensing 8–10 individuals per 20 ml glass scintillation vials. Additional positive control treatments in the form of 4 concentrations of copper II chloride solution (2 to 900 µg l^−1 Cu), were included for test validation. The static assay was terminated after 24 h and 10% seawater formalin was added as a preservative for later microscopy. Metamorphosis was considered successful when nauplii had developed into protozoea.
The model was constrained by applying a lower limit of 0% inhibition and all curves were tested for normality of the residuals and a replicate test was applied to assess the goodness of fit[36]. The probability that ICX values generated by the logistic curves were statistically different between parent and aged herbicide solutions was tested by applying the F test in Graph Pad Prism v6. ICXs were considered different when p < 0.05. Where inhibition data could not be fitted to logistic curves, one-way analysis of variance (ANOVA) was performed to identify treatments which caused significant (p < 0.05) inhibition comparison with control treatments (NCSS v9, Utah, USA). The larval prawn experimental data was arcsine square root transformed prior to statistical analysis.

[2] = Herbicide degradation in outdoor tanks with coastal seawater and sediment (330 d); format: physicochemical; details: day 330, in tank of the parent herbicide, measured or estimated
Text: Photosystem II herbicides/transformation product solutions were produced by adding herbicides to seawater within separate 120 l outdoor fibreglass tanks, in the presence of natural coastal sediments (further details can be found in Mercurio 2016)[36]. […] The tanks used were previously described in Mercurio et al.[8], with treatment water being partially shaded (70%) and exposed to a maximum of 700 µmol photons m^−2s^−1 over the course of the experiment. The application of a natural diurnal light regime and coastal sediment were previously shown to increase the rates of PSII herbicide degradation and represent more natural conditions than those used in standard degradation tests[8],[36]. Evaporation was minimised with loose-fitting clear acrylic lids and the water continuously circulated using Turbelle Nanostream pumps. Prior to every sampling period evaporation losses were replenished with equal volumes of MilliQ water. The average temperature was 25.7 °C with a range of 15.6–36.6 °C over the course of the study. Unfiltered coastal seawater and sediments were collected from the intertidal zone adjacent to the Australian Institute of Marine Science (19°16′S, 147°03′E), Cape Cleveland, QLD. The sediments were prepared one week prior to use by sieving (>2 mm removed) and thorough mixing. Each tank contained 5 kg of sediment. Physical and chemical information on the seawater and sediments used the treatments can be found in SOM Table 1.
The 20 tanks included replicates for control seawater (n = 4) and the PSII herbicides diuron (n = 4), atrazine (n = 3), simazine (n = 3), hexazinone (n = 3), and ametryn (n = 3). Herbicide treatments and replicates were randomized among tanks. The herbicides were purchased from Sigma Aldrich (>95% purity) and were introduced at ~1 mg l^−1 to enable direct chemical and toxicological testing of the herbicide transformation product mixtures without additional concentration steps. […] The same concentration was used in the controls. Sample collection, internal standard addition, and analytical techniques (HPLC-MS/MS using an AB/Sciex API5500Q mass spectrometer equipped with an electrospray interface and coupled to a Shimadzu Prominence HPLC system) were as previously reported[7],[36]. […] Individual replicates were analysed using HPLC/TripleTOF mass spectrometry for possible transformation products as described in Mercurio 2016[36]. Briefly, 0.2 µm-filtered samples were directly injected into an ABSciex API5600+ Triple TOF mass spectrometer (ABSciex, Concord, Ontario, Canada) equipped with an electrospray (TurboV) interface coupled to a Shimadzu Nexera HPLC system (Shimadzu Corp., Kyoto, Japan). Separation was achieved using a 4 micron 50 × 2.0 mm Phenomenex Synergi Fusion RP column (Phenomenex, Torrance, CA) run at 45 °C, and a flow rate of 0.4 mL min^−1 with a linear gradient starting at 8% B for 0.5 minutes, ramped to 100% B in 8 minutes then held at 100% for 2.0 minutes followed by equilibration at 8% B for 2.5 minutes (A = 1% methanol in HPLC grade water, B = 95% methanol in HPLC grade water, both containing 0.1% acetic acid). The mass spectrometer was operated in positive ion SWATH mode. Briefly this mode comprises a TOF scan of 50 millisecond duration followed by small segments of the mass range being transmitted through the quadrupole, fragmented in the collision cell and full TOF mass spectra taken of the transformation products. Data from these experiments was examined using the Masterview software (ABSciex).
Potential transformation products identified using TOF mass spectrometry and other potential transformation products identified from literature were then re-examined by HPLC/ triple quadrupole mass spectrometry using multiple reaction monitoring. Product ions used were as identified from QTOF data or from literature references and parameters such as collision energy optimised by repeated injections of samples for compounds detected. […]

[3] = 24 h, vs solvent control, ANOVA p < 0.05, aged solutions as concentration of parent herbicide
[4] = Penaeus monodon (giant tiger prawn), in vivo, 24 h

SMILES	LOEC, prawn larval metamorphosis [1, 3]	NOEC, prawn larval metamorphosis [1, 3]	Transformation product concentration [2]	LOEC, prawn larval metamorphosis [1, 4]	Effect on prawn larval metamorphosis (in words) ([1]; in vivo)	Transformation product concentration ([2]; listed as Desisopropyl Atrazine)
Nc1ccc(Cl)c(Cl)c1 [3,4-DCA, 3,4-dichloroaniline]	188 µg/L	54 µg/L	2.1 µg/L			
CCNc1nc(N)nc(Cl)n1 [DIA, desisopropylatrazine]				3.5 µg/L	significantly inhibiting metamorphosis at all concentrations tested	5.1 µg/L
CC(C)Nc1nc(N)nc(Cl)n1 [DEA, desethylatrazine]			36 µg/L	3.8 µg/L	significantly inhibiting metamorphosis at all concentrations tested	
